Measured values published in the supplement of paper PMC10307832.

Columns and labels:
Test in all cases: relative viability (nuclei count vs DMSO), 5 days (fraction); higher = more cells survive
[1] = compound: CC1=NC=CC(=C1)C2=CC=C(C=C2)CC(=O)NC3=CC=C(C=C3)C4=CN=CC=C4 [Wnt-C59] + COc1cccc2cc(-c3nc([C@H]4CC[C@H](C(=O)O)CC4)n4ncnc(N)c34)[nH]c12 [OSI-027] (partner 0.5 µM)
Summary of the method: (§1)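 Nuclei were stained with Hoechst during a one-step fixation (final 0.05% Triton X-100, 1% formaldehyde, 1 ug/ml Hoechst) carried out 5 days after dosing, then counted on 4× images. The cells, lung cancer lines in 1536-well plates, had been dosed by pin tool the day after seeding with one drug alone or a fixed anchor-drug dose plus five library-drug doses (not always all listed) in √10 steps. Relative viability is the nuclei count in treated wells divided by that in vehicle wells, and each value is the median of duplicate plates.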

[2] = compound: CC1=NC=CC(=C1)C2=CC=C(C=C2)CC(=O)NC3=CC=C(C=C3)C4=CN=CC=C4 [Wnt-C59] + C[C@]1(O)C[C@@H](c2nc(-c3ccc4ccc(-c5ccccc5)nc4c3)c3c(N)nccn32)C1 [Linsitinib] (partner 1 µM)
Summary of the method: as §1

[3] = compound: CS(=O)(=O)CCNCc1ccc(-c2ccc3ncnc(Nc4ccc(OCc5cccc(F)c5)c(Cl)c4)c3c2)o1 [Lapatinib] + CC(=O)c1c(C)c2cnc(Nc3ccc(N4CCNCC4)cn3)nc2n(C2CCCC2)c1=O [Palbociclib] (partner 0.5 µM)
Summary of the method: as §1

[4] = compound: CS(=O)(=O)CCNCc1ccc(-c2ccc3ncnc(Nc4ccc(OCc5cccc(F)c5)c(Cl)c4)c3c2)o1 [Lapatinib] + C[C@]1(O)C[C@@H](c2nc(-c3ccc4ccc(-c5ccccc5)nc4c3)c3c(N)nccn32)C1 [Linsitinib] (partner 1 µM)
Summary of the method: as §1

Cell Line	relative viability ([1]; first compound 0.001 µM)	relative viability ([1]; first compound 0.01 µM)	relative viability ([1]; first compound 0.03162 µM)	relative viability ([1]; first compound 0.1 µM)	relative viability ([2]; first compound 0.001 µM)	relative viability ([2]; first compound 0.01 µM)	relative viability ([2]; first compound 0.03162 µM)	relative viability ([2]; first compound 0.1 µM)	relative viability ([3]; first compound 0.02 µM)	relative viability ([3]; first compound 0.2 µM)	relative viability ([3]; first compound 0.6325 µM)	relative viability ([3]; first compound 2 µM)	relative viability ([4]; first compound 0.02 µM)	relative viability ([4]; first compound 0.06325 µM)	relative viability ([4]; first compound 0.2 µM)	relative viability ([4]; first compound 0.6325 µM)	relative viability ([4]; first compound 2 µM)	relative viability ([3]; first compound 0.06325 µM)
NCI-H1792	0.722	0.686	0.926	0.703	0.557	0.5	0.465	0.549	0.618	0.614	0.559	0.6	0.456	0.455	0.532	0.533	0.431	
NCI-H1793	0.189		0.287	0.266	0.926	0.729	0.875	0.865		0.258	0.293	0.241				0.605	0.515	0.25
NCI-H1915	0.667	0.578	0.529	0.692	1.07	1.04	1.12	1.09		0.489	0.496	0.522		1.09	1.08	1.02	1.1	0.517
NCI-H1944	0.407	0.358	0.415	0.462	1.13	1.11	1.26	1.12	0.304	0.265	0.275	0.225			0.959	0.767	0.656	0.253
NCI-H1975	0.685	0.555	0.855	0.713	1.01	0.88	1.01	0.922	0.285	0.518	0.575	0.311	0.843	0.927	0.954	0.853	0.694	0.492
NCI-H1993	0.582		0.57	0.544	0.703	0.811	0.699	0.799	0.687	0.471	0.588	0.433	0.743		0.816	0.752	0.639	
NCI-H2009	0.699	0.701	0.695	0.64	1.17	1.15	1.19	1.12	0.192	0.177	0.253	0.233	1.22	1.22	1.22	1.18	1.09	0.213
NCI-H2023	0.475	0.316	0.461	0.376	0.736	0.58	0.648	0.631		0.324	0.242	0.264	0.594	0.519	0.474	0.512	0.366	0.266
